The term IC50 denotes the point on the concentration scale where inhibition reaches its midpoint. As a reminder, the pKa is the pH at which an ionisable group is half protonated.

The values below come from publication PMC8071248, “Characterization of Dog Glutathione Transferase P1-1, an Enzyme Relevant to Veterinary Medicine” (International Journal of Molecular Sciences, 2021).

In one series the test system is Human GST P1-1/Ile105. More on the design: method as in PMID 9600848. The conditions noted are these: compound as substrate; cited from earlier work.
In series [1] the target is T1, dog GST P1-1 (Canis lupus familiaris, UniProt A0A8I3QRM6). It counts as biochemical. The conditions noted are these: compound as substrate with GSH; 30 °C; substrate-specific concentrations and pH. How it is done:
The purified dog GST P1-1 enzyme was assayed spectrophotometrically with various substrates representing different types of chemical reactions, including substitution, reduction, addition, and isomerization.
Activity measurements with alternative substrates were performed spectrophotometrically on a Shimadzu (UV-250 1 PC) instrument. All measurements were conducted at 30 °C and in a 1 mL quartz cuvette, except for the alkenals, which were measured in a 0.5 mL quartz cuvette with a 5 mm light path. The conditions used with the final concentrations in the cuvette were as follows. CDNB: (Δε340 nm = 9600 cm^−1 M^−1), 1 mM GSH, 1 mM CDNB (dissolved in ethanol), measured at pH 6.5 in buffer A (0.1 M NaH2PO4/Na2HPO4 with 1 mM EDTA); CuOOH: (Δε340 nm = −6200 cm^−1 M^−1), 1 mM GSH, 1.5 mM CuOOH (dissolved in acetonitrile), 0.1 mM NADPH, 0.3 units glutathione reductase, measured at pH 7.0 in buffer A; Alkenals: (Δε225 nm = −19,200 cm^−1 M^−1), 0.5 mM GSH, 0.1 mM alkenals (dissolved in acetonitrile), measured at pH 6.5 in buffer A; EA: (Δε270 nm = 5000 cm^−1 M^−1), 0.25 mM GSH, 0.2 mM EA (dissolved in acetonitrile), measured at pH 6.5 in buffer A; AD: (Δε248 nm = 16,300 cm^−1 M^−1), 1 mM GSH, 0.1 mM AD (dissolved in methanol), measured at pH 8.0 in 0.025 M NaH2PO4/Na2HPO4 with 1 mM EDTA; PEITC: (Δε274 nm = 8890 cm^−1 M^−1), BITC: (Δε274 nm = 9250 cm^−1 M^−1), AITC: (Δε274 nm = 7450 cm^−1 M^−1), PITC: (Δε274 nm = 8350 cm^−1 M^−1), cHITC (Δε274 nm = 8520 cm^−1 M^−1), 1 mM GSH, 0.4 mM ITC (dissolved in acetonitrile), measured at pH 6.5 in buffer A.

Series [2] addresses T1, dog GST P1-1. The experiment in a line: biochemical. The conditions noted are these: for IC50: 1 mM GSH and 0.4 mM benzyl isothiocyanate as substrates, standard assay conditions. It counts as biochemical.
The next series deals with Cys48 (UniProt position 48, SLKASCLYGQL). The conditions noted are these: cited from earlier work.
Series [3] addresses T1, dog GST P1-1. The series can be described thus: Activation of the prodrug Telcyta by GST P1-1, TLC assay with ninhydrin staining. Type of series: biochemical. The conditions noted are these: 3 mM Telcyta, 0.25 mg/mL enzyme, pH 7.5, 37 °C, nonenzymatic background subtracted. As to the method:
The prodrug Telcyta is a substrate for GSTs in a reaction releasing a multifunctional phosphorodiamidate mustard (Figure 5). The prodrug was most effectively activated by human GST P1-1 from the enzymes examined. Telcyta was tested with the dog GST P1-1 for comparison. We developed a chromatographic method to assay the reaction. Aliquots of the reaction mixture were analyzed by thin-layer chromatography (TLC), and the ninhydrin-reactive product as well as the substrate were quantified at different time points (Figure 6). Conditions were chosen to ascertain a linear response of ninhydrin staining with increasing analyte concentration. The enzymatic activity was obtained by subtracting the nonenzymatic background reaction.
Telcyta is a tripeptide derivative, which releases an alkylating agent by the action of GSTs and is converted to another tripeptide. Both substrate and product peptides are reactive with ninhydrin and the reaction can be monitored by sampling of the reaction mixture at consecutive time points. […] A background reaction was also measured in the absence of enzyme. […]
Six TLC plates (silica coated), one for each time point, were prepared and sampling occurred immediately after addition of Telcyta and every 3.5 min thereafter. The reaction was monitored over a total of 17.5 min. […]
Catalytic activity was estimated both by visual observation and by quantitative ImageJ analysis. […]

T1 sequence (A0A8I3QRM6 1-210): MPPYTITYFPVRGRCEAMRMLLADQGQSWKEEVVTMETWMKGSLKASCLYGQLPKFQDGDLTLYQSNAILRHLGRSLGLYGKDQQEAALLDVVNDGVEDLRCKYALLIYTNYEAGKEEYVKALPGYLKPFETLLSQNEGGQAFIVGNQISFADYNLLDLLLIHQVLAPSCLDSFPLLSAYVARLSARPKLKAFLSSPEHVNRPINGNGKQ

Regarding `CC(C)(OO)c1ccccc1` [Cumene hydroperoxide], in the series on Human GST P1-1/Ile105, the “Specific Activity, Human GST P1-1/Ile105” value was 0.03 µmol/min/mg. The “Specific Activity, Dog GST P1-1” value on dog GST P1-1 [1] was found to be 0.07 ± 0.01 µmol/min/mg.

`[Cl][Sn]([c]1ccccc1)([c]1ccccc1)[c]1ccccc1` [Triphenyltin chloride] displayed an IC50 against dog GST P1-1 [2] of 3110 ± 380 nM. For the molecule `C[C@]12CCC(=O)CC1=CC[C@@H]1[C@@H]2CC[C@]2(C)C(=O)CC[C@@H]12` [Δ^5-androstene-3,17-dione], the “Specific Activity, Human GST P1-1/Ile105” value in the series on Human GST P1-1/Ile105 is on record as 0.01 µmol/min/mg. Moreover, the “Specific Activity, Dog GST P1-1” value on dog GST P1-1 [1] was 0.014 ± 0.005 µmol/min/mg. In the case of `CCCCCC/C=C/C=O` [trans-2-Nonenal], the “Specific Activity, Dog GST P1-1” value at dog GST P1-1 [1] stood at 0.124 ± 0.005 µmol/min/mg. In the case of “Glutathione transferase P1-1 (GST P1-1, class Pi) (Homo sapiens)”, the pKa in the series with Cys48 is 4.2.

On to `CCCCCCC/C=C/C=O` [trans-2-Decenal], for which the “Specific Activity, Dog GST P1-1” value at dog GST P1-1 [1] turned out to be 0.111 ± 0.005 µmol/min/mg. Regarding `O=[N+]([O-])c1ccc(Cl)c([N+](=O)[O-])c1` [1-Chloro-2,4-dinitrobenzene], the “Specific Activity, Human GST P1-1/Ile105” value in the series on Human GST P1-1/Ile105 is recorded as 106 µmol/min/mg. Besides, the “Specific Activity, Dog GST P1-1” value at dog GST P1-1 [1] turned out to be 23.0 ± 1.3 µmol/min/mg.

`NC(CCC(=O)NC(CS(=O)(=O)CCOP(=O)(N(CCCl)CCCl)N(CCCl)CCCl)C(=O)NC(C(=O)O)c1ccccc1)C(=O)O` [Telcyta, γ-L-Glutamyl-α-amino-β-(2-ethyl-N,N,N′,N′-tetrakis(2-chloroethyl)phosphorodiamidate)sulfonylpropionyl-R(−)phenylglycine]: at dog GST P1-1 [3], the “Fold lower activity per mg of protein of dog GST P1-1 than the human enzyme” value is 18 fold. With `C=C(CC)C(=O)c1ccc(OCC(=O)O)c(Cl)c1Cl` [Ethacrynic acid], the “Specific Activity, Dog GST P1-1” value at dog GST P1-1 [1] worked out at 2.05 ± 0.13 µmol/min/mg. For `C=CCN=C=S` [Allyl isothiocyanate], the “Specific Activity, Human GST P1-1/Ile105” value with Human GST P1-1/Ile105 was 38 µmol/min/mg. Also, at dog GST P1-1 [1], the “Specific Activity, Dog GST P1-1” value is recorded as 1.94 ± 0.60 µmol/min/mg. Regarding `S=C=NCc1ccccc1` [Benzyl isothiocyanate], the “Specific Activity, Human GST P1-1/Ile105” value in the series on Human GST P1-1/Ile105 was 63 µmol/min/mg. The “Specific Activity, Dog GST P1-1” value on dog GST P1-1 [1] is 39.0 ± 5.2 µmol/min/mg.

In the case of `CCCN=C=S` [Propyl isothiocyanate], the “Specific Activity, Human GST P1-1/Ile105” value with Human GST P1-1/Ile105 is reported as 49 µmol/min/mg. For the same molecule, the “Specific Activity, Dog GST P1-1” value on dog GST P1-1 [1] is listed as 2.55 ± 0.20 µmol/min/mg. Regarding `S=C=NCCc1ccccc1` [Phenethyl isothiocyanate], the “Specific Activity, Human GST P1-1/Ile105” value in the series with Human GST P1-1/Ile105 is recorded as 60 µmol/min/mg. For the same molecule, the “Specific Activity, Dog GST P1-1” value on dog GST P1-1 [1] came out at 6.37 ± 1.03 µmol/min/mg. `Nc1c(S(=O)(=O)O)cc(Nc2ccc(Nc3nc(Cl)nc(Nc4ccccc4S(=O)(=O)O)n3)c(S(=O)(=O)O)c2)c2c1C(=O)c1ccccc1C2=O` [Cibacron Blue] gave an IC50 on dog GST P1-1 [2] of 43 ± 7 nM. In addition, the “Shape of inhibition curve (cooperativity)” value at dog GST P1-1 [2] (benzyl isothiocyanate as substrate) was “positive cooperativity”. Turning to `CC/C=C/C=O` [trans-2-Pentenal], the “Specific Activity, Dog GST P1-1” value at dog GST P1-1 [1] is 0.100 ± 0.002 µmol/min/mg. Turning to `S=C=NC1CCCCC1` [Cyclohexyl isothiocyanate], the “Specific Activity, Human GST P1-1/Ile105” value in the series with Human GST P1-1/Ile105 is given as 11 µmol/min/mg. Also, at dog GST P1-1 [1], the “Specific Activity, Dog GST P1-1” value worked out at 1.27 ± 0.08 µmol/min/mg. Take `CCCCCCCCC/C=C/C=O` [trans-2-Dodecenal]: at dog GST P1-1 [1], the “Specific Activity, Dog GST P1-1” value worked out at 0.046 ± 0.006 µmol/min/mg.
